Test results published in the NIST ThermoML archive (doi:10.1016/j.jct.2017.03.006).

Assay: xn = mol fraction of the nth substance listed
Conditions: 333.15 K, Liquid, Vibrating tube method

Cc1ccc(C)c(C)c1 [1,2,4-trimethylbenzene] + CCCCO
mass density [kg/m3]
Conditions | x2 = 0 | x2 = 0.1005 | x2 = 0.2261 | x2 = 0.2999 | x2 = 0.3966 | x2 = 0.5289 | x2 = 0.6367 | x2 = 0.7249 | x2 = 0.7977 | x2 = 0.9131
40000 kPa | – | – | – | – | – | – | – | – | – | 815.6
50000 kPa | 877.4 | 871.4 | 865.1 | 861.1 | 855.9 | 848.3 | 841.6 | 835.7 | 830.5 | 821.7
60000 kPa | 883 | 877.1 | 870.8 | 866.8 | 861.6 | 854 | 847.3 | 841.4 | 836.3 | 827.5
70000 kPa | 888.2 | 882.3 | 876.2 | 872.2 | 866.9 | 859.5 | 852.7 | 846.9 | 841.7 | 832.9
80000 kPa | 893.2 | 887.4 | 881.2 | 877.2 | 872 | 864.6 | 857.8 | 852 | 846.8 | 838
90000 kPa | 898 | 892.2 | 886 | 882.1 | 876.9 | 869.4 | 862.7 | 856.9 | 851.7 | 842.9
100000 kPa | 902.5 | 896.8 | 890.7 | 886.7 | 881.5 | 874.1 | 867.4 | 861.6 | 856.4 | 847.6
120000 kPa | 911.1 | 905.4 | 899.4 | 895.4 | 890.3 | 882.8 | 876.1 | 870.3 | 865.2 | 856.4
140000 kPa | 919 | 913.3 | 907.6 | 903.3 | 898.3 | 891 | 884.3 | 878.6 | 873.5 | 864.5
